Assay results as given in US20240393292A1, “ALLERGY ANTIGEN AND EPITOPE THEREOF” (HOYU CO., LTD., priority 2019, published 2024).

Test system: IgE antibodies from patients
Assay: Wheat epitope mapping (2): overlapping 10-amino-acid peptide fragments shifted by one amino acid;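 on Rank of partial sequence as epitope binding to IgE antibody: key = sequence deemed particularly important within the common 15-residue sequence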;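 on epitope sequence binding to IgE antibody, rank (Key/Preferably/More preferably): key of grades: preferably = shorter partial sequence still acting as epitope; more preferably = sequence improving IgE binding; key = particularly important sequence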
Assay type: binding, human
Conditions: for Epitope sequence binding to IgE antibody, rank of the sequence (Key/Preferably/More preferably/Further preferably): serum of patient P50 (child, general immediate type allergy to wheat)
Outline: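 Cellulose-bound 10-mer peptides offset by one residue were probed with patient serum IgE and detected by chemiluminescence. Secondary-antibody-only signals were subtracted per peptide. Residual binding was expressed as % of the parent overlapping peptide, scored as none (<30%), poor (30–<50%), somewhat poor (50–<70%) or retained (≥70%).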

[1] = serum of patient P12 (WDEIA), sequence without X

## 2494 (QVSF; REGION 1..4: note = epitope) [compound 2494]
Serum of patient P2 (WDEIA), partial sequence
  Epitope sequence binding to IgE antibody, rank of the sequence: Key

## 1646 (YNPDKVPF; REGION 1..8: note = epitope) [compound 1646]
Serum of patient P36 (WDEIA), sequence without X
  Rank of partial sequence as epitope binding to IgE antibody: Preferably

## 1463 (QQPISQQQAQ; REGION 1..10: note = epitope) [compound 1463]
Serum of patient P24 (WDEIA), sequence without X
  Rank of partial sequence as epitope binding to IgE antibody: Further preferably

## 1250 (PQQPP; REGION 1..5: note = epitope) [compound 1250]
Serum of patient P33 (WDEIA), sequence without X
  Epitope sequence binding to IgE antibody, rank of the sequence: Key

## 2543 (VSFQPSQLN; REGION 1..9: note = epitope) [compound 2543]
Serum of patient G7 (adult, general immediate type allergy to wheat), partial sequence
  Epitope sequence binding to IgE antibody, rank of the sequence: Preferably

## 1965 (QQFPGQQ; REGION 1..7: note = epitope) [compound 1965]
Serum of patient P33 (WDEIA)
  epitope sequence binding to IgE antibody, rank (Key/Preferably/More preferably): Preferably

## 2472 (SGKTENEE; REGION 1..8: note = epitope) [compound 2472]
Serum of patient P52 (child, general immediate type allergy to wheat), sequence without X
  Epitope sequence binding to IgE antibody, rank of the sequence (Key/Preferably/More preferably): More preferably

## 1539 (LVQQQQFLG; REGION 1..9: note = epitope) [compound 1539]
Serum of patient P17 (WDEIA), sequence without X
  Rank of partial sequence as epitope binding to IgE antibody: More preferably

## 1665 (VPFVPISG; REGION 1..8: note = epitope) [compound 1665]
Serum of patient G2 (adult, general immediate type allergy to wheat), sequence without X
  Rank of partial sequence as epitope binding to IgE antibody: Key

## 2461 (LKAWSG; REGION 1..6: note = epitope) [compound 2461]
Sequence without X
  Epitope sequence binding to IgE antibody, rank of the sequence (Key/Preferably/More preferably/Further preferably): More preferably

## 2247 (LLRGIRNYRV; REGION 1..10: note = epitope) [compound 2247]
Sequence without X
  Epitope sequence binding to IgE antibody, rank of the sequence (Key/Preferably/More preferably/Further preferably): Key

## 1785 (LKKVGYNP; REGION 1..8: note = epitope) [compound 1785]
Serum of patient G7 (adult, general immediate type allergy to wheat)
  epitope sequence binding to IgE antibody, rank (Key/Preferably/More preferably): Key

## 1563 (QVPLVQQQQ; REGION 1..9: note = epitope) [compound 1563]
Serum of patient G7 (adult, general immediate type allergy to wheat), sequence without X
  Rank of partial sequence as epitope binding to IgE antibody: Preferably

## 1528 (QVPLVQQ; REGION 1..7: note = epitope) [compound 1528]
[1]
  Rank of partial sequence as epitope binding to IgE antibody: Preferably

## 2560 (LQQSTYQLVQ; REGION 1..10: note = epitope) [compound 2560]
Serum of patient P22 (WDEIA), partial sequence
  Epitope sequence binding to IgE antibody, rank of the sequence: Key

## 1902 (QQFPGQQ; REGION 1..7: note = epitope) [compound 1902]
Serum of patient P3 (WDEIA)
  epitope sequence binding to IgE antibody, rank (Key/Preferably/More preferably): Key

## 1819 (SGKELEALPK; REGION 1..10: note = epitope) [compound 1819]
Serum of patient P33 (WDEIA)
  epitope sequence binding to IgE antibody, rank (Key/Preferably/More preferably): Key

## 1661 (FVPISG; REGION 1..6: note = epitope) [compound 1661]
Serum of patient G1 (adult, general immediate type allergy to wheat), sequence without X
  Rank of partial sequence as epitope binding to IgE antibody: Key

## 1921 (QVPLVQQQ; REGION 1..8: note = epitope) [compound 1921]
Serum of patient P12 (WDEIA)
  epitope sequence binding to IgE antibody, rank (Key/Preferably/More preferably): Preferably

## 2291 (LGGIDK; REGION 1..6: note = epitope) [compound 2291]
Serum of patient P34 (WDEIA), sequence without X
  Epitope sequence binding to IgE antibody, rank of the sequence (Key/Preferably/More preferably): Key

## 1426 (YLQPQ; REGION 1..5: note = epitope) [compound 1426]
[1]
  Epitope sequence binding to IgE antibody, rank of the sequence: Key

## 2607 (LQQSTYQLVQ; REGION 1..10: note = epitope) [compound 2607]
Serum of patient G6 (adult, general immediate type allergy to wheat), partial sequence
  Epitope sequence binding to IgE antibody, rank of the sequence: Key

## 2516 (SSQVSF; REGION 1..6: note = epitope) [compound 2516]
Serum of patient P53 (child, general immediate type allergy to wheat), partial sequence
  Epitope sequence binding to IgE antibody, rank of the sequence: Key

## 2555 (QSTYQLVQQL; REGION 1..10: note = epitope) [compound 2555]
Serum of patient P20 (WDEIA), partial sequence
  Epitope sequence binding to IgE antibody, rank of the sequence: Key

## 1740 (KEAANF; REGION 1..6: note = epitope) [compound 1740]
Serum of patient G1 (adult, general immediate type allergy to wheat)
  epitope sequence binding to IgE antibody, rank (Key/Preferably/More preferably): Key
